Article PMC6112376, “Comprehensive Analyses and Prioritization of Tox21 10K Chemicals Affecting Mitochondrial Function by in-Depth Mechanistic Studies” (Environmental Health Perspectives, 2018)
Read-outs that look alike come from different tables or passages of the source.

Tests used:
rat primary hepatocytes = assay: MMP assay in rat primary hepatocytes; details: for IC50: read-out: MMP assays IC50 (µM) Rat Hepatocytes
HepG2 cells [1] = details: for IC50: read-out: MMP assays IC50 (µM) HepG2
HepG2 cells [2] = details: cited from earlier work
[3] = rat hepatocytes, mean ± SD of three experiments
[4] = HepG2 cells, single number from one experiment
[5] = read-out: MMP assays IC50 (µM), qHTS-HepG2
[6] = read-out: MMP assays IC50 (µM) qHTS-HepG2

Compound | MMP assays IC50 (µM) Rat Hepatocytes (rat primary hepatocytes; [3]) | MMP assays efficacy (%) Rat Hepatocytes (rat primary hepatocytes; [3]) | MMP assays IC50 (µM) HepG2 (HepG2 cells [1]; [4]) | MMP assays efficacy (%) HepG2 (HepG2 cells [1]; [4]) | MMP assays IC50 (µM) qHTS-HepG2 (HepG2 cells [2]) | MMP assays efficacy (%) qHTS-HepG2 (HepG2 cells [2]) | IC50 (rat primary hepatocytes; Rattus norvegicus, Hepatocyte) [µM] | IC50 (HepG2 cells [2]; [5]) [µM] | IC50 (HepG2 cells [1]; [4]) [µM] | IC50 (HepG2 cells [2]; [6]) [µM] | IC50 (rat primary hepatocytes; [3]) [µM] | MMP assays IC50 (µM) Rat Hepatocytes (rat primary hepatocytes) | MMP assays IC50 (µM) HepG2 (HepG2 cells [1]) | MMP assays efficacy (%) HepG2 (HepG2 cells [1]) | IC50 (rat primary hepatocytes) [µM] | IC50 (HepG2 cells [1]) [µM]
CC(C)c1ccccc1O [Compound 2-Isopropylphenol] | inactive | inactive | inactive | inactive | inactive | inactive |  |  |  |  |  |  |  |  |  | 
O=C1OC(OC(=O)c2cccnc2Nc2cccc(C(F)(F)F)c2)c2ccccc21 (centres unmarked) [Talniflumate] |  | -85±2% | inactive | inactive |  | -105±19% | 16 ± 6.68 | 27 ± 2.56 |  |  |  |  |  |  |  | 
O=C(c1ccccc1)c1cccc(O)c1 [Compound 3-Hydroxybenzophenone] | inactive | inactive |  | -86% |  | -87±9% |  |  | 39.8 | 27.7 |  |  |  |  |  | 
CN(C)C(=O)Nc1ccccc1 [Fenuron] | inactive | inactive | inactive | inactive | inactive | inactive |  |  |  |  |  |  |  |  |  | 
Cl.O=C1CSC2(CCN(CCCN3c4ccccc4Sc4ccc(Cl)cc43)CC2)N1 [Spiclomazine hydrochloride] | inactive | inactive | inactive | inactive |  | -107±11% |  | 34.8 ± 2.36 |  |  |  |  |  |  |  | 
COc1ccc(C(=O)c2ccccc2)c(O)c1 [Compound 2-Hydroxy-4-methoxybenzophenone] |  |  | inactive | inactive | inactive | inactive | 50.1 ± 18.9 |  |  |  |  |  |  |  |  | 
CC(C)COC(=O)c1ccc(O)cc1 [Isobutylparaben] | inactive | inactive |  | -129% |  | -91±6% |  | 14.2 ± 1.82 | 14.1 |  |  |  |  |  |  | 
CCCOc1ccc2nc(NC(=O)OC)sc2c1 [Tioxidazole] |  | -65±43% |  | -62% |  | -70±6% |  | 7.5 ± 1.75 | 15.5 |  | 13 ± 1.06 |  |  |  |  | 
C=C1CC[C@H](O)C/C1=C/C=C1\CCC[C@]2(C)[C@@H]([C@H](C)CC[C@@H](O)C(C)(C)O)CC[C@@H]12 [24R,25-Dihydroxyvitamin D3] |  | -46±4% |  | -133% |  | -111±10% |  |  | 15.5 | 13 ± 2.17 | 17.3 |  |  |  |  | 
CCCCCCCC/C=C\CCCCCCCC(N)=O [(9Z)-Octadec-9-enamide] | inactive | inactive | inactive | inactive |  | -67±17% |  |  |  | 41.6 ± 7.16 |  |  |  |  |  | 
Cc1cc(C(C)(C)C)c(O)c(C)c1Cn1c(=O)n(Cc2c(C)cc(C(C)(C)C)c(O)c2C)c(=O)n(Cc2c(C)cc(C(C)(C)C)c(O)c2C)c1=O |  | -40±24% |  | -82% |  | -98±4% |  |  | 44.7 | 12.2 ± 2.84 | 26.8 ± 25.3 |  |  |  |  | 
N=C1NC(=N)c2cc3ccccc3cc21 [1,3-Diiminobenz(f)isoindoline] |  | -68±18% |  | -95% |  | -82±11% |  |  | 35.5 | 11.1 ± 7.81 | 26.7 ± 23.6 |  |  |  |  | 
CO[C@H]1C[C@H](O[C@H]2[C@H](C)O[C@@H](O[C@@H]3/C(C)=C/C[C@@H]4C[C@@H](C[C@]5(C=C[C@H](C)[C@@H](C6CCCCC6)O5)O4)OC(=O)[C@@H]4C=C(C)[C@@H](O)[C@H]5OC/C(=C\C=C\[C@@H]3C)[C@]54O)C[C@@H]2OC)O[C@@H](C)[C@@H]1O [Doramectin] | inactive | inactive |  | -117% |  | -80±13% |  |  | 17.3 | 11.9 |  |  |  |  |  | 
CCOC(=O)c1ccccc1C(=C1C=C(Br)C(=O)C(Br)=C1)c1cc(Br)c(O)c(Br)c1 [Tetrabromophenolphthalein ethyl ester] |  | -101±25% |  | -129% |  | -105±26% |  | 23.8 ± 6.89 | 26.6 |  | 13.8 ± 0.94 |  |  |  |  | 
O=C(OCC(COC(=O)c1ccccc1)(COC(=O)c1ccccc1)COC(=O)c1ccccc1)c1ccccc1 | inactive | inactive |  | -52% |  | -63±21% |  |  | 7.08 | 4.32 ± 8.63 |  |  |  |  |  | 
Nc1cc(Cl)c([N+](=O)[O-])cc1O [Compound 2-Amino-4-chloro-5-nitrophenol] |  | -47±13% |  | -107% |  | -104±19% |  |  | 25.1 | 21.5 ± 2.48 | 31.3 ± 8.72 |  |  |  |  | 

Compound | MMP assays IC50 (µM) Rat Hepatocytes (rat primary hepatocytes; [3]) | MMP assays efficacy (%) Rat Hepatocytes (rat primary hepatocytes; [3]) | MMP assays IC50 (µM) HepG2 (HepG2 cells [1]; [4]) | MMP assays efficacy (%) HepG2 (HepG2 cells [1]; [4]) | MMP assays IC50 (µM) qHTS-HepG2 (HepG2 cells [2]) | MMP assays efficacy (%) qHTS-HepG2 (HepG2 cells [2]) | IC50 (rat primary hepatocytes; Rattus norvegicus, Hepatocyte) [µM] | IC50 (HepG2 cells [2]; [5]) [µM] | IC50 (HepG2 cells [1]; [4]) [µM] | IC50 (HepG2 cells [2]; [6]) [µM] | IC50 (rat primary hepatocytes; [3]) [µM] | MMP assays IC50 (µM) Rat Hepatocytes (rat primary hepatocytes) | MMP assays IC50 (µM) HepG2 (HepG2 cells [1]) | MMP assays efficacy (%) HepG2 (HepG2 cells [1]) | IC50 (rat primary hepatocytes) [µM] | IC50 (HepG2 cells [1]) [µM]
CCCCCCCCCCCCCC[P+](CCCCCC)(CCCCCC)CCCCCC.[Cl-] [Trihexyltetradecylphosphonium chloride] |  | -91±44% |  | -101% |  | -113±11% |  | 0.77 ± 0.35 | 0.89 |  | 30.3 ± 8.97 |  |  |  |  | 
Nc1ccc(NC(=O)c2ccc(N)cc2)cc1 [4,4'-Diaminobenzanilide] |  | -86±15% |  | -93% |  | -100±8% |  |  | 7.08 | 3.72 ± 2.85 | 33.5 ± 2.73 |  |  |  |  | 
Cc1cccc(C(C)(C)C)c1O [Phenol, 2-(1,1-dimethylethyl)-6-methyl-] | inactive | inactive | inactive | inactive | inactive | inactive |  |  |  |  |  |  |  |  |  | 
O=C1c2ccccc2Cc2ccccc21 [Anthrone] |  | -68±22% | inactive | inactive |  | -70±4% | 42.4 ± 12 |  |  | 21.8 ± 9.9 |  |  |  |  |  | 
CCCCCCCC[n+]1ccn(C)c1.O=S(=O)([O-])C(F)(F)F [1-Methyl-3-octylimidazolium trifluoromethanesulfonate] |  | -82±36% |  | -84% |  | -58±19% |  |  | 15.8 | 8.38 ± 4.29 | 31.6 |  |  |  |  | 
Cc1ccc2oc(CN(Cc3ccccc3)C(=O)Nc3c(F)cc(F)cc3F)c(-c3ccc(Cl)cc3)c2c1 | inactive | inactive |  | -66% |  | -59±30% |  |  | 56.2 | 21 ± 2.43 |  |  |  |  |  | 
CCCCC/C(C=O)=C/c1ccccc1 [Amyl cinnamal] |  |  |  |  | inactive | inactive |  |  |  |  |  | inactive | inactive | inactive |  | 
Cc1cc2nc3ccc(N(C)C)cc3[s+]c2cc1N.[Cl-] [Toluidine blue] | inactive | inactive |  | -44% |  | -50±26% |  | 3.48 ± 1.6 | 4.89 |  |  |  |  |  |  | 
Acriflavine hydrochloride |  |  |  |  |  | -131±19% |  |  |  | 0.94 ± 0.44 |  |  |  | -107% | 3.55 ± 1.14 | 0.44
CCCC(c1cc(C(C)(C)C)c(O)cc1C)c1cc(C(C)(C)C)c(O)cc1C |  | -61±15% |  | -100% |  | -106±11% |  | 5.51 ± 1.58 | 7.08 |  | 21.1 ± 18.2 |  |  |  |  | 
Diniconazole |  |  |  |  |  |  |  |  |  | 12.2 ± 3.53 |  |  |  |  | 36 ± 28.6 | 8.91
CCN(C(=O)N(CC)c1ccccc1)c1ccccc1 [N,Nφ-Diethylcarbanilide] |  | -58±11% | inactive | inactive |  | -69±23% |  | 21.7 ± 38.2 |  |  | 13.1 ± 16.4 |  |  |  |  | 
Dodecylphenol |  | -59±7% |  | -100% |  |  |  |  | 3.16 | 3.1 ± 1.22 | 41.1 ± 13.2 |  |  |  |  | 
CCCCCc1ccco1 [Compound 2-Pentylfuran] | inactive | inactive | inactive | inactive |  | -76±20% |  |  |  | 42.2 ± 2.81 |  |  |  |  |  | 
CCCCCCCC[n+]1ccn(C)c1.F[B-](F)(F)F [1-Methyl-3-octylimidazolium tetrafluoroborate] |  | -76±29% |  | -115% |  | -73±29% |  |  | 19.9 | 5.66 ± 5.82 | 43.4 ± 7.4 |  |  |  |  | 
